This is an account of results in ChEMBL document CHEMBL1817544, “Carbonic anhydrase inhibitors. Synthesis, molecular structures, and inhibition of the human cytosolic isozymes I and II and transmembrane isozymes IX, XII (cancer-associated) and XIV with novel 3-pyridinesulfonamide derivatives” (Eur J Med Chem, 2011).

The structures appear in SMILES notation.

For the first assay, the target named is Carbonic anhydrase 1 (Homo sapiens, UniProt P00915).
Sequence of Carbonic anhydrase 1 (P00915 whole entry): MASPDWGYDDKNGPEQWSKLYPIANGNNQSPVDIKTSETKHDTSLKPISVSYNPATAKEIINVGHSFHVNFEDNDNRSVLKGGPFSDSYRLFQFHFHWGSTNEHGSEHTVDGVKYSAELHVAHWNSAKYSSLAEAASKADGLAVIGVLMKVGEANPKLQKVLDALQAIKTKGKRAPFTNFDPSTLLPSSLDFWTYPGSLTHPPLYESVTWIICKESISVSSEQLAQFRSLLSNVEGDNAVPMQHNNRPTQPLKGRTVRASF
For orientation: Ki means a measure of affinity in units of concentration, obtained from inhibition or displacement. Compound `NS(=O)(=O)c1cnccc1Oc1ccncc1S(N)(=O)=O` showed a Ki of 251000 nM.

The next assay concerns the target Carbonic anhydrase 9 (Homo sapiens, UniProt Q16790).
For the compound `COC1=C(S(N)(=O)=O)C2NS(=O)(=O)c3cnccc3N2C=C1` (centres undefined), the affinity corresponds to a Ki of 13.5 nM.

With `NS(=O)(=O)c1cnccc1-[n+]1ccccc1`, the Ki is 7.6 nM.

`Cc1cccc[n+]1-c1ccncc1S(N)(=O)=O` returned a Ki of 7.4 nM.

Compound `Cc1cc[n+](-c2ccncc2S(N)(=O)=O)cc1` gave a Ki of 10.1 nM.

Turning to `CN(C)c1cc[n+](-c2ccncc2S(N)(=O)=O)cc1`, the Ki was found to be 9 nM.

As to `COC1=CC=CC2N1c1ccncc1S(=O)(=O)N2c1ccncc1S(N)(=O)=O` (centres undefined), the Ki was 8.7 nM. The Ki values of the last two compounds are within 1.5-fold of each other.

On to `NS(=O)(=O)c1cnccc1-n1ccccc1=O`, for which the Ki was found to be 10.2 nM.

Consider `NS(=O)(=O)c1cnccc1Oc1ccncc1S(N)(=O)=O`, for which affinity was put at a Ki of 9 nM.
